These results are taken from BindingDB's records for doi:10.1016/s0960-894x(99)00197-3 (The R. W. Johnson Pharmaceutical Research Institute, 1999).

A short description of test [1]: Activation of human platelet aggregation (gel-filtered platelets) induced by alpha thrombin.
Test [2] is described as follows: Inhibition of [3H]S-(p-F-Phe)-Har-L-Har-KY-NH2 binding to Thrombin receptor 1 (PAR-1) on membranes from CHRF cells.

As to `N=C(N)NCCC[C@H](NC(=O)[C@H](Cc1ccccc1)NC(=O)c1ccc2nc[nH]c2c1)C(=O)N[C@@H](Cc1ccccc1)C(N)=O` [1H-Benzoimidazole-5-carboxylic acid {(S)-1-[(S)-1-((S)-1-carbamoyl-2-phenyl-ethylcarbamoyl)-4-guanidino-butylcarbamoyl]-2-phenyl-ethyl}-amide], the midpoint of the response in test [1], the EC50, lay at 4900 nM.

`N=C(N)NCCC[C@H](NC(=O)[C@H](CC1CCCCC1)NC(=O)c1nccnc1N)C(=O)N[C@@H](Cc1ccccc1)C(N)=O` [3-Amino-pyrazine-2-carboxylic acid {(S)-1-[(S)-1-((S)-1-carbamoyl-2-phenyl-ethylcarbamoyl)-4-guanidino-butylcarbamoyl]-2-cyclohexyl-ethyl}-amide]: the EC50 in test [1] was found to be 4200 nM.

Turning to `N=C(N)NCCC[C@H](NC(=O)[C@H](CC1CCCCC1)NC(=O)c1cc(=O)c2ccccc2o1)C(=O)N[C@@H](Cc1ccccc1)C(N)=O` [4-Oxo-4H-chromene-2-carboxylic acid {(S)-1-[(S)-1-((S)-1-carbamoyl-2-phenyl-ethylcarbamoyl)-4-guanidino-butylcarbamoyl]-2-cyclohexyl-ethyl}-amide], in test [1], the 50% effective concentration (EC50) amounted to 510 nM.

`N=C(N)NCCC[C@H](NC(=O)[C@H](CC1CCCCC1)NC(=O)c1nnc(NC(=O)C=Cc2cccc3ccccc23)[nH]1)C(=O)N[C@@H](Cc1ccccc1)C(N)=O` [5-((E)-3-Naphthalen-1-yl-acryloylamino)-1H-[1,2,4]triazole-3-carboxylic acid {(S)-1-[(S)-1-((S)-1-carbamoyl-2-phenyl-ethylcarbamoyl)-4-guanidino-butylcarbamoyl]-2-cyclohexyl-ethyl}-amide] returned a 50% effective concentration (EC50) in test [1] of 1000 nM.

In test [1], `N=C(N)NCCC[C@H](NC(=O)[C@H](CC1CCCCC1)NC(=O)c1nnc(N)[nH]1)C(=O)N[C@H](C(N)=O)c1ccccc1` [5-Amino-1H-[1,2,4]triazole-3-carboxylic acid ((S)-1-{(S)-1-[((S)-carbamoyl-phenyl-methyl)-carbamoyl]-4-guanidino-butylcarbamoyl}-2-cyclohexyl-ethyl)-amide] returned an EC50 of 3100 nM.

Take `N=C(N)NCCC[C@H](NC(=O)[C@H](CC1CCCCC1)NC(=O)c1nnc(N)[nH]1)C(=O)N[C@@H](Cc1ccccc1)C(N)=O` [5-Amino-1H-[1,2,4]triazole-3-carboxylic acid {(S)-1-[(S)-1-((S)-1-carbamoyl-2-phenyl-ethylcarbamoyl)-4-guanidino-butylcarbamoyl]-2-cyclohexyl-ethyl}-amide]: the concentration for a half-maximal effect (EC50) in test [1] amounted to 760 nM.

With `N=C(N)NCCC[C@H](NC(=O)[C@H](Cc1ccccc1)NC(=O)c1nnc(N)[nH]1)C(=O)N[C@@H](Cc1ccccc1)C(N)=O` [5-Amino-1H-[1,2,4]triazole-3-carboxylic acid {(S)-1-[(S)-1-((S)-1-carbamoyl-2-phenyl-ethylcarbamoyl)-4-guanidino-butylcarbamoyl]-2-phenyl-ethyl}-amide], in test [1], the EC50 amounted to 1000 nM.

As for `N=C(N)NCCC[C@H](NC(=O)[C@H](CC1CCCCC1)NC(=O)c1ccccn1)C(=O)N[C@@H](Cc1ccccc1)C(N)=O` [Pyridine-2-carboxylic acid {(S)-1-[(S)-1-((S)-1-carbamoyl-2-phenyl-ethylcarbamoyl)-4-guanidino-butylcarbamoyl]-2-cyclohexyl-ethyl}-amide], the EC50 in test [2] turned out to be 14000 nM.

Regarding `N=C(N)NCCC[C@H](NC(=O)[C@H](CC1CCCCC1)NC(=O)c1cnc2ccccc2n1)C(=O)N[C@@H](Cc1ccccc1)C(N)=O` [Quinoxaline-2-carboxylic acid {(S)-1-[(S)-1-((S)-1-carbamoyl-2-phenyl-ethylcarbamoyl)-4-guanidino-butylcarbamoyl]-2-cyclohexyl-ethyl}-amide], a half-maximal response in test [2] (EC50) required 1000 nM.

Turning to `N=C(N)NCCC[C@H](NC(=O)[C@H](CC1CCCCC1)NC(=O)c1csnn1)C(=O)N[C@@H](Cc1ccccc1)C(N)=O` [[1,2,3]Thiadiazole-4-carboxylic acid {(S)-1-[(S)-1-((S)-1-carbamoyl-2-phenyl-ethylcarbamoyl)-4-guanidino-butylcarbamoyl]-2-cyclohexyl-ethyl}-amide], a half-maximal effect in test [2] (EC50) was put at 1300 nM.

For orientation: EC50 means the concentration that produces a half-maximal response. A low value points to greater potency.
